# Measurements reported in patent publication US7122360B1, “Polypeptides, polynucleotides and uses thereof” (University of Dundee, priority 1998, dated 2006).
# Peptide text beside a SMILES is read from it.
# Legend:
# MAPKAP-K1a [1] = molecular target: T1, MAPKAP-K1a (Rattus norvegicus, UniProt Q63531); test: Substrate phosphorylation kinetics with GST-MAPKAP-K1a; format: biochemical
# T1 construct: made in house; host or cells: human embryonic kidney 293 cells, TPA-stimulated
# Method: (§1) FIG. 8. […] (A) Comparison of the substrate specificities of MSK1, MAPKAP-K1a and MAPKAP-K1b towards the indicated peptides and CREB. Phosphorylation and analysis was carried out as described in Materials and Methods. The standard errors for all reported kinetic constants were within <+20% (SEM), and the data is reported as mean values for 2 independent experiments. The Vmax values are reported as a percentage of the value obtained using Crosstide ([…], peptide 1 (SEQ ID NO:16)) as a substrate. The peptide […] (SEQ ID NO:18) corresponding to residues 126–136 of CREB is termed CREBtide. The serine residues shown in bold correspond to the phosphorylated serine residues on the peptides. […] (B) GST-MSK1 (solid bars), GST-MAPKAPK-1a (open bars), MAPKAP-K-1b (speckled bars) or GST-MAPKAP-K2 (diagonal bars) were assayed with the indicated substrates. […] The phosphorylation of CREB by MAPKAP-K2 shown in the figure is corrected to show only the contribution of Ser133 phosphorylation to the total incorporation of phosphate into CREB. […]
# (§2) Phosphorylation of CREB and HSP27 by MSK1 and MAPKAP-K1a/b (see FIG. 8). MSK1 and MAPKAP-K1a expressed as GST fusion proteins were purified from TPA stimulated 293 cells (FIG. 3) and MAPKAP-K1b was purified from rabbit skeletal muscle (Sutherland et al., 1993). […] The ^32P-radioactivity incorporated was then determined by Cerenkov counting. […]
# MAPKAP-K1b = molecular target: T2, MAPKAP-K1b (Oryctolagus cuniculus, UniProt A0A5F9C4L9); test: Substrate phosphorylation kinetics with MAPKAP-K1b; format: biochemical, rabbit
# T2 construct: MAPKAP-K1b was purified from rabbit skeletal muscle (Sutherland et al., 1993); from tissue; host or cells: rabbit skeletal muscle
# Method: as §1, §2
# MSK1 [2] = molecular target: MSK1 (Homo sapiens, UniProt O75582); test: Substrate phosphorylation kinetics with GST-MSK1; format: biochemical; design: generate a full length FLAG-MSK 1 construct in the pCMV5 mammalian expression; made in house; host or cells: human embryonic kidney 293 cells (TPA-stimulated before lysis)
# Method: FIG. 8. MSK1 phosphorylates CREB at Ser133. (A) Comparison of the substrate specificities of MSK1, MAPKAP-K1a and MAPKAP-K1b towards the indicated peptides and CREB. Phosphorylation and analysis was carried out as described in Materials and Methods. The standard errors for all reported kinetic constants were within <+20% (SEM), and the data is reported as mean values for 2 independent experiments. The Vmax values are reported as a percentage of the value obtained using Crosstide ([…], peptide 1 (SEQ ID NO:16)) as a substrate. The peptide […] (SEQ ID NO:18) corresponding to residues 126–136 of CREB is termed CREBtide. The serine residues shown in bold correspond to the phosphorylated serine residues on the peptides. […] 75% of the radioactivity applied to the column was recovered from the major ^32P-containing peptide at 13% acetonitrile (the remainder of the radioactivity eluted as numerous minor peaks). […]
# Phosphorylation of CREB and HSP27 by MSK1 and MAPKAP-K1a/b (see FIG. 8). MSK1 and MAPKAP-K1a expressed as GST fusion proteins were purified from TPA stimulated 293 cells (FIG. 3) and MAPKAP-K1b was purified from rabbit skeletal muscle (Sutherland et al., 1993). […] The ^32P-radioactivity incorporated was then determined by Cerenkov counting. […] The supernatant, containing 95% of the ^32P-radioactivity, was chromatographed on a Vydac C18 column as described in the legend to FIG. 8. […]
# MSK1 [3] = test: Activation of transfected Flag-MSK1 in 293 cells; format: cell-based, human; conditions: stimulation with the agonist
# Method: FIG. 6. Effect of mutation of MSK1 on activation by TPA and UV in 293 cells. 293 cells were transiently transfected with DNA constructs expressing Flag epitope tagged wild type MSK1, N-terminal (NT) “kinase dead” MSK1 and C-terminal (CT) “kinase dead” MSK1. […] The cells were lysed and the MSK1 was immunoprecipitated from the lysates and assayed with Crosstide.
# Transfection of MSK1 into 293 cells. 293 cells were cultured on 10 cm diameter dishes and transfected with the pCMV5 vector encoding the Flag epitope tagged MSK1 constructs using a modified calcium phosphate method (Alessi et al., 1996b). 24 h post-transfection, the cells were deprived of serum for 16 h, stimulated with TPA or exposed to UV radiation, the cells were then lysed in 1 ml of ice cold Buffer A, centrifuged at 13,000×g for 5 min, and the Flag tagged MSK1 protein immunoprecipitated from aliquots of lysate (containing 25 μg protein) using 2 μg of FLAG antibody coupled to 5 (1 of Protein G-Sepharose.
# Immunoprecipitates were incubated, washed and assayed for MSK1 activity as described above.
# MAPKAP-K1a [4] = test: Activation of overexpressed MAPKAP-K1a in 293 cells; format: cell-based, human; conditions: TPA stimulation, data not shown
# Text: FIG. 7. MSK1 is mainly localised in the nucleus of cells and MAPKAP-K1a in the cytosol. […] Data is from three independent experiments. For MSK1 controls n=9, 9 and 14; for TPA n+10, 11 and 15. For MAPKAP-K1a controls total n=22; for TPA total n=9 (excluding cells with extensive clumps of immunoreactive material in the cytoplasm). Bars represent standard error of the mean calculated according to Cochran (1953). (C) Selected samples for MSK1 (C, unstimulated and D, TPA) and for MAPKAP-K1a (E, unstimulated) are shown to illustrate structures and labelling distributions. Bar is 500 nm.
# MSK1 is localised in nuclei and MAPKAP-K1a in the cytoplasm. The subcellular location of wild type MSK1 that was overexpressed in 293 cells was investigated by quantitative immunoelectron microscopy (FIG. 7). MSK1 was largely located in the nucleus of unstimulated cells. The density of MSK1 in the nuclear compartment was 12 to 30-fold higher than in the cytoplasm (FIGS. 7A and 7C). […] Consistent with this observation MAPKAP-K1a, when overexpressed in cells, was largely localised in the cytoplasm (FIG. 7B). Moreover, no significant translocation of MAPKAP-K1a to the nucleus was observed following TPA stimulation of cells (FIGS. 7B and 7E) which induces 100-fold activation of this kinase (data not shown).
# MAPKAP-K1 = test: NGF-induced activation of MAPKAP-K1 in PC12 cells
# T2 sequence (A0A5F9C4L9 1-740): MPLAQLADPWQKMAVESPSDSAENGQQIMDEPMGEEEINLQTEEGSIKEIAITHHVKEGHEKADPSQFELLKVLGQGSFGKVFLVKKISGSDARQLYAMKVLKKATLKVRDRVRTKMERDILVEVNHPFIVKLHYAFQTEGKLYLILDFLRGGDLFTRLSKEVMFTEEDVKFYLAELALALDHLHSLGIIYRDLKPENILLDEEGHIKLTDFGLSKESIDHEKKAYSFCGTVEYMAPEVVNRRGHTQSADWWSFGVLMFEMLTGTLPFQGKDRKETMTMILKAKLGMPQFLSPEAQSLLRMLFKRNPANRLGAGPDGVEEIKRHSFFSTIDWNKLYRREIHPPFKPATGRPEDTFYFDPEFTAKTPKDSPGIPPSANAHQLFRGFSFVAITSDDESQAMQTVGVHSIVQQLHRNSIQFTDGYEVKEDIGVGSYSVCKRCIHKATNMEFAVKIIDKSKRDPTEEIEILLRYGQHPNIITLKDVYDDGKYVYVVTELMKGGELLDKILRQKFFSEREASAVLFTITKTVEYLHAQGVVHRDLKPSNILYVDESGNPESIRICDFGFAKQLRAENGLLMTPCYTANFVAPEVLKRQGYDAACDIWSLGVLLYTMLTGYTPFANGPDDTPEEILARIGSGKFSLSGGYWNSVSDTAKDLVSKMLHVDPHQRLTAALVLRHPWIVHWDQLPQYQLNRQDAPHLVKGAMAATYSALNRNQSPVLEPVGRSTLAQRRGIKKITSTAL
# T1 sequence (Q63531 whole entry): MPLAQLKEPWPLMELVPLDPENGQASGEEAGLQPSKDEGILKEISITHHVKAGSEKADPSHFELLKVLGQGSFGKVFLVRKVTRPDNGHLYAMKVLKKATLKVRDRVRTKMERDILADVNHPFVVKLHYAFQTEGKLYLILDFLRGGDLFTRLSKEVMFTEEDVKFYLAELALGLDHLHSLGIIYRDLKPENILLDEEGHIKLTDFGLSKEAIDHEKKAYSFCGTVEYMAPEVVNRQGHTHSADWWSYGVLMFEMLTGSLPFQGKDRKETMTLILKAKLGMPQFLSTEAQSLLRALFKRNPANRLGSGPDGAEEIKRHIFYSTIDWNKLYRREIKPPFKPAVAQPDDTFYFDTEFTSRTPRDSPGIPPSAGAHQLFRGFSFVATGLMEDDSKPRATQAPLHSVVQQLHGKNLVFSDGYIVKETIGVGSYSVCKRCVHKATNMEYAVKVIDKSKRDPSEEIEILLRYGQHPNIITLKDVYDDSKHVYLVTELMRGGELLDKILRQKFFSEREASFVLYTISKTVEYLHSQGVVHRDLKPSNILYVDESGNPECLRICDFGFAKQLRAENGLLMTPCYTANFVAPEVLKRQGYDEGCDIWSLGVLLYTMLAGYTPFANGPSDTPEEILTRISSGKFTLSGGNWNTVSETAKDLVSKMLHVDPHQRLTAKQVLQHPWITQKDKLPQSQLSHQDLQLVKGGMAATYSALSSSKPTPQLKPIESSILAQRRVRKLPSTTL
# MSK1 (Homo sapiens, UniProt O75582), sequence (O75582 whole entry, the tested form may be a part): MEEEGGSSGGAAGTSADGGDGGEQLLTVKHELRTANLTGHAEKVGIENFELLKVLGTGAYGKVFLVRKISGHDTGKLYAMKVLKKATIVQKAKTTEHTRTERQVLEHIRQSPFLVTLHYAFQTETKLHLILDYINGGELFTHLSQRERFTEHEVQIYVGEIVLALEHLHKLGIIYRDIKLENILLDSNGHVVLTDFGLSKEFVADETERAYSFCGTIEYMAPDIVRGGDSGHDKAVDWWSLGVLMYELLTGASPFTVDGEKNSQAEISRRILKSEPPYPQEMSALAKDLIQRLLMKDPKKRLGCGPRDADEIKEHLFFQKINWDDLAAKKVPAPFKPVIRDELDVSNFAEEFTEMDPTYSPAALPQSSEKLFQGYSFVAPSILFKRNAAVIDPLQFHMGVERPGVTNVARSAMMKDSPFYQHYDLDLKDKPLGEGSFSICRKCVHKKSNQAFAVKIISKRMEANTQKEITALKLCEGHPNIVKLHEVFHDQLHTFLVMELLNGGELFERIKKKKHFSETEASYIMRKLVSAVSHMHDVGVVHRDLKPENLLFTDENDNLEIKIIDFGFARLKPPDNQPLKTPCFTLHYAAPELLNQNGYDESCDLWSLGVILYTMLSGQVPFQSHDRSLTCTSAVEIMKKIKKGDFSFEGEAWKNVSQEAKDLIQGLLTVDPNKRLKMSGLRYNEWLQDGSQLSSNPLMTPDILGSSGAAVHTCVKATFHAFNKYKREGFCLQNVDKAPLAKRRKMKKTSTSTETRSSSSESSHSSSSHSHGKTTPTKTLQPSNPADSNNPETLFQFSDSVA
compound,measurement,setting,value
CC(C)C[C@H](NC(=O)[C@@H](NC(=O)[C@H](CCCNC(=N)N)NC(=O)[C@H](CC(N)=O)NC(=O)[C@H](CCCNC(=N)N)NC(=O)[C@H](CCCCN)NC(=O)[C@@H](N)CCCCN)[C@@H](C)O)C(=O)N[C@@H](CO)C(=O)N[C@H](C(=O)N[C@@H](C)C(=O)O)C(C)C (H-KKRNRTLSVA-OH),Km for phosphorylation by MAPKAP-K1a,MAPKAP-K1a [1],almost identical Km and Vmax values as for Crosstide
same,Km for phosphorylation by MAPKAP-K1b,MAPKAP-K1b,almost identical Km and Vmax values as for Crosstide
C[C@H](NC(=O)[C@H](Cc1ccccc1)NC(=O)[C@H](CO)NC(=O)[C@H](CO)NC(=O)[C@@H](NC(=O)[C@H](CCCNC(=N)N)NC(=O)[C@@H]1CCCN1C(=O)[C@H](CCCNC(=N)N)NC(=O)CN)[C@@H](C)O)C(=O)N[C@@H](CCC(=O)O)C(=O)NCC(=O)O [Crosstide] (H-GRPRTSSFAEG-OH),Km,MSK1 [2],2 to 3 µM
same,Km,MAPKAP-K1a [1],2 to 3 µM
same,Km,MAPKAP-K1b,2 to 3 µM
"CCCCCCCCCCCCCC(=O)O[C@@H]1[C@@H](C)[C@@]2(O)[C@@H](C=C(CO)C[C@]3(O)C(=O)C(C)=C[C@@H]23)[C@@H]2C(C)(C)[C@]12OC(C)=O [TPA, 12-O-tetradecanoylphorbol 13-acetate]",activation of transfected wild type MSK1,MSK1 [3],200 fold
same,activation of overexpressed MAPKAP-K1a,MAPKAP-K1a [4],100 fold
CC[C@H](C)[C@H](NC(=O)[C@@H](N)CCC(=O)O)C(=O)N[C@@H](CC(C)C)C(=O)N[C@@H](CO)C(=O)N[C@@H](CCCNC(=N)N)C(=O)N[C@@H](CCCNC(=N)N)C(=O)N1CCC[C@H]1C(=O)N[C@@H](CO)C(=O)N[C@@H](Cc1ccc(O)cc1)C(=O)N[C@@H](CCCNC(=N)N)C(=O)N[C@@H](CCCCN)C(=O)O [CREBtide] (H-EILSRRPSYRK-OH),Km,MSK1 [2],< 0.1 µM
NGF: nerve growth factor used as cell stimulus,activation of MAPKAP-K1 by NGF,MAPKAP-K1,five-fold
